Laboratory results reported in patent US20260183274A1, “PDK1 REGULATORY COMPOUND AND COMPOSITION CONTAINING THE SAME” (PROVIBIO CO., LTD., priority 2024, published 2026).

What was measured:
[1] = test system: HCT-116 colon cancer cell lines; experiment: Matrigel Invasion Assay, HCT-116; type: cell-based, human; conditions: 24 hours treatment, FIG. 30
Description: To evaluate the metastasis inhibitory efficacy of the compounds of the present invention on HCT-116 colon cancer cell lines, an Invasion Assay using Matrigel was performed to assess the cells' invasion ability.
First, Matrigel was thawed on ice in RPMI-1640 medium without FBS, then diluted with DMEM at a ratio of 1:20.
The diluted Matrigel mixture was applied to the upper chamber at 100 μl per well, and 750 μl of RPMI-1640 without FBS was added to the lower chamber.
The plates were then incubated at 37° C. for 1 hour to allow the Matrigel to solidify.
After coating, the Matrigel mixture in the upper chamber was removed using a pipette, and the chamber was washed with RPMI without FBS.
Human-derived colorectal cancer cell line HCT-116, obtained from the Korean Cell Bank, was cultured in RPMI-1640 medium containing 10% FBS.
Following stabilization, the cells were harvested using Trypsin-EDTA treatment, centrifuged at 1,200 rpm for 3 minutes, the supernatant was removed, and the cells were resuspended in the same medium, the medium in the lower chamber was replaced with 750 μl of RPMI-1640 supplemented with 10% FBS, and the cells were seeded into the upper chamber at a density of 5×10^4 cells/well.
The cells were cultured for 24 hours after attachment, and then the compounds according to the present invention (G078, G085, G086, G088, G089, PBK-2024-010, PBK-2025-010, PBK-2025-013, PBK-2025-016) and the control substance DMSO were diluted and added to the upper chamber after removing the medium.
Additionally, the medium in the lower chamber was replaced with fresh RPMI-1640 containing FBS, and the culture was continued.
After an additional 24 hours, the medium was removed, and 1 ml of methanol was added for 10 minutes to fix the cells.
Subsequently, 1 ml of Hematoxylin was added and reacted for 5 minutes, followed by 1 ml of Eosin, which was reacted for 30 seconds. The sample was then washed with distilled water (DW).
After staining was complete, any remaining cells in the upper chamber were removed. Finally, the infiltrated cells were observed under a microscope, photographed, and the degree of infiltration was analyzed.

[2] = test system: T cells isolated from mouse spleens; experiment: T cell proliferation inhibition (CFSE flow cytometry, anti-CD3/anti-CD28 stimulation); type: cell-based; conditions: mouse spleen T cells, 3 days; for inhibition at 0.01 µM / inhibition at 0.1 µM / inhibition at 1 µM / inhibition at 10 µM / inhibition at 30 µM / inhibition at 50 µM: Mus musculus, T-cell, 72 h, read-out: Proliferation inhibition rate (%)
Outline: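 Proliferation inhibition (%) came from flow cytometry of CFSE dilution after 3 days' culture at 37 °C with compound (10 nM, 100 nM, 1, 10, 30, 50 μM; triplicate wells). Cells were magnetically purified T cells from C57BL/6 mouse spleens, 2×10^5 per well, stimulated with 0.5 μg/mL each anti-CD3 and anti-CD28.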

[3] = test system: Human Pancreas Adenocarcinoma cell line, AsPC-1; experiment: Relative cell viability CCK-8, AsPC-1; type: cell-based; conditions: 48 hours; for viability at 1 µM: ASPC1, 1 μM; for viability at 10 µM: ASPC1, 10 μM; for viability at 30 µM: ASPC1, 30 μM; for viability at 50 µM: ASPC1, 50 μM
Description: (§1) Human-derived breast cancer cell line MCF-7, human-derived lung cancer cell line A549, human-derived colorectal cancer cell line HCT-116, human pancreatic cancer cell line AsPC-1, glioblastoma cell line A172, and melanoma cell line Malme-3M were obtained from the Korean Cell Bank. gastric cancer cell line SNU-719, and bladder cancer cell line T24 were cultured in RPMI-1640 medium containing 10% FBS.
(§2) Following stabilization, the cells were harvested using Trypsin-EDTA treatment, centrifuged at 1,200 rpm for 3 minutes, the supernatant was removed, and the cells were resuspended in the same medium. They were then seeded into a 96-well plate (Costar 96-well cell culture plate, Corning) at 100 μL per well, and the conditions were adjusted as indicated in Table 5.
(§3) The cells were cultured in a 5% CO2 incubator at 37° C. for 24 hours, and after stabilization of the cells, each plate was washed with 200 μL of PBS per well and treated with 50 μL of culture medium per well.
(§4) After that, 10 μL of CCK-8 was added to each well, and the plate was incubated again at 37° C. in a 5% CO2 incubator for 2 hours.
(§5) In other words, when the survival rate of untreated cells (DMSO) is set at 100%, the relative cell survival rate in each group treated with the drug at different concentrations is indicated.

[4] = test system: Human Colorectal Carcinoma cell line, HCT-116; experiment: Relative cell viability CCK-8, HCT-116; type: cell-based; conditions: Homo sapiens, HCT-116, 48 hours
Description: as §1, §2, §3, §4, §5

[5] = test system: Human B Lymphocyte cell line, SU-DHL-8; experiment: Relative cell viability CCK-8, SU-DHL-8; type: cell-based; conditions: for viability at 1 µM / viability at 10 µM / viability at 30 µM / viability at 50 µM: Homo sapiens, SU-DHL-8, 48 h; for viability at 1 µM: read-out: Relative cell viability (%), SU-DHL-8, 1 μM; for viability at 10 µM: read-out: Relative cell viability (%), SU-DHL-8, 10 μM; for viability at 30 µM: read-out: Relative cell viability (%), SU-DHL-8, 30 μM; for viability at 50 µM: read-out: Relative cell viability (%), SU-DHL-8, 50 μM
Outline: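 Cells grown in RPMI-1640 with 10% FBS, treated with compound at several concentrations, then given CCK-8 for 4 h at 37° C. Viability expressed as percent of DMSO-treated cells.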

[6] = test system: Human Bladder cancer cell, T24; experiment: Relative cell viability CCK-8, T24; type: cell-based; conditions: Homo sapiens, 48 h
Description: as §1, §2, §3, §4, §5

[7] = test system: Human Head and Neck cancer, Fadu; experiment: Relative cell viability CCK-8, Fadu; type: cell-based; conditions: Fadu cells, relative to untreated cells
Description: Human-derived head and neck cancer cell line Fadu and osteosarcoma cell line Saos-2 were cultured in MEM medium containing 10% FBS, 100 U/mL penicillin, and 100 μg/mL streptomycin.
as §2, §3, §4, §5

[8] = test system: Human Gastric cancer cell, SNU-719; experiment: Relative cell viability CCK-8, SNU-719; type: cell-based; conditions: 48 hours
Description: as §1, §2, §3, §4, §5

[9] = 48 hours, untreated (DMSO) = 100%
[10] = 1 μM, 48 hours, untreated (DMSO) = 100%
[11] = 10 μM, 48 hours, untreated (DMSO) = 100%
[12] = 30 μM, 48 hours, untreated (DMSO) = 100%
[13] = 50 μM, 48 hours, untreated (DMSO) = 100%

| Compound | Number of infiltrated cells (invasion) [1] | Proliferation inhibition rate (%) ([2]; compound 10 nM) | Proliferation inhibition rate (%) ([2]; compound 100 nM) | Proliferation inhibition rate (%) ([2]; compound 1 μM) | Proliferation inhibition rate (%) ([2]; compound 10 μM) | Proliferation inhibition rate (%) ([2]; compound 30 μM) | Proliferation inhibition rate (%) ([2]; compound 50 μM) | inhibition at 0.01 µM ([2]; compound 10 nM) | inhibition at 0.1 µM ([2]; compound 100 nM) | inhibition at 1 µM ([2]; compound 1 μM) | inhibition at 10 µM ([2]; compound 10 μM) | inhibition at 30 µM ([2]; compound 30 μM) | inhibition at 50 µM ([2]; compound 50 μM) | viability at 1 µM [5, 9] | viability at 10 µM [5, 9] | viability at 30 µM [5, 9] | other results |
| --- | --- | --- | --- | --- | --- | --- | --- | --- | --- | --- | --- | --- | --- | --- | --- | --- | --- |
| 12-(4-hydroxypiperazin-1-yl)dodecyl-N-(6-aminopurazin-2-yl) carboxamide [Compound 10] | reduction in the number of infiltrated cells | 100.00% | 100.00% | 100.00% | 100.00% | 100.00% | 100.00% |  |  |  |  |  |  |  |  |  |  |
| Nc1ncccc1C(=O)NCCCCCCCCCCCCN1CCSC1 [Compound 31, 2-Amino-N-(12-(thiazolidin-3-yl)dodecyl)nicotinamide] |  |  |  |  |  |  |  | 8.01% | 77.2% | 100% | 100% | 100% | 100% | 5.57% | 4.36% | 1% | viability at 1 µM [3]: 40.8%; viability at 10 µM [3]: 41%; viability at 30 µM [3]: 39.4%; viability at 50 µM [3]: 36.6%; viability at 1 µM [4]: 11.6%; viability at 10 µM [4]: 13.2%; viability at 30 µM [4]: 12.3%; viability at 50 µM [4]: 12%; viability at 50 µM [5, 9]: 0.23%; viability at 1 µM [6]: 7.59%; viability at 10 µM [6]: 7.06%; viability at 30 µM [6]: 7.58%; viability at 50 µM [6]: 6.92% |
| CN(C)C1CCCCN(CCCCCCCCCCCCNC(=O)c2cccnc2N)C1 (stereo not drawn) [Compound 45, 2-Amino-N-(12-(3-(dimethylamino)azepan-1-yl)dodecyl)nicotinamide] |  |  |  |  |  |  |  | 0.16% | 100% | 100% | 100% | 100% | 100% | 1.91% | 1.27% | 0.53% | viability at 1 µM ([7]; Homo sapiens, FaDu, 1 μM): 29.8%; viability at 10 µM ([7]; Homo sapiens, FaDu, 10 μM): 74.1%; viability at 30 µM ([7]; Homo sapiens, FaDu, 30 μM): 60%; viability at 50 µM ([7]; Homo sapiens, FaDu, 50 μM): 18.2%; Relative cell viability (%), SU-DHL-8 ([5]; human, 48 h, 50 µM): −1.31%; viability at 1 µM [6]: 9.91%; viability at 10 µM [6]: 11%; viability at 30 µM [6]: 9.95%; viability at 50 µM [6]: 9.04% |
| CC(C)(C)OC(=O)N[C@H]1CCN(CCCCCCCCCCCCNC(=O)c2cccnc2N)C1 [Compound 49, tert-Butyl(S)-(1-(12-(2-aminonicotinamido)dodecyl)pyrrolidin-3-yl) carbamate] | reduction in the number of infiltrated cells | −22.61% | 100.00% | 100.00% | 100.00% | 100.00% | 100.00% |  |  |  |  |  |  |  |  |  | Relative cell viability (%), SU-DHL-8 [5, 10]: 8.93%; Relative cell viability (%), SU-DHL-8 [5, 11]: 8.02%; Relative cell viability (%), SU-DHL-8 [5, 12]: 7.48%; Relative cell viability (%), SU-DHL-8 [5, 13]: 4.09% |
| Nc1ncccc1C(=O)NCCCCCCCCCCCCN1CC(F)C1 [Compound 52, 2-Amino-N-(12-(3-fluoroazetidin-1-yl)dodecyl)nicotinamide] | reduction in the number of infiltrated cells |  |  |  |  |  |  | 11.3% | 13.8% | 100% | 100% | 100% | 100% | 14.2% | 11.6% | 10.1% | viability at 1 µM ([8]; 1 μM): 41.2%; viability at 10 µM ([8]; 10 μM): 35.9%; viability at 30 µM ([8]; 30 μM): 35.5%; viability at 50 µM ([8]; 50 μM): 35%; viability at 1 µM [4]: 33.6%; viability at 10 µM [4]: 13.3%; viability at 30 µM [4]: 12.7%; viability at 50 µM [4]: 11.8%; viability at 50 µM [5, 9]: 9.15% |
| Nc1ncccc1C(=O)NCCCCCCCCCCCCN1CCN(CCO)CC1 [Compound 54, 2-Amino-N-(12-(4-(2-hydroxyethyl)piperazin-1-yl)dodecyl) nicotinamide] |  | −43.03% | 100.00% | 100.00% | 100.00% | 100.00% | 100.00% |  |  |  |  |  |  |  |  |  | Relative cell viability (%) ([7]; 1 μM): 24.97%; Relative cell viability (%) ([7]; 10 μM): 33.03%; Relative cell viability (%) ([7]; 30 μM): 32.41%; Relative cell viability (%) ([7]; 50 μM): 18.65%; Relative cell viability (%), SU-DHL-8 [5, 10]: 6.42%; Relative cell viability (%), SU-DHL-8 [5, 11]: 4.05%; Relative cell viability (%), SU-DHL-8 [5, 12]: 3.26%; Relative cell viability (%), SU-DHL-8 [5, 13]: 2.23% |
| Nc1ncccc1C(=O)NCCCCCCCCCCCCN1CCc2ccccc21 [Compound 89, 2-Amino-N-(12-(indolin-1-yl)dodecyl)nicotinamide] |  |  |  |  |  |  |  | -3.34% | 100% | 100% | 100% | 100% | 100% | 1.33% | 0.82% | 0.48% | viability at 1 µM [3]: 30.3%; viability at 10 µM [3]: 19.2%; viability at 30 µM [3]: 17.8%; viability at 50 µM [3]: 17.8%; Relative cell viability (%), SU-DHL-8 ([5]; human, 48 h, 50 µM): −0.86% |
